Reference: US9718781B2, “Methods and compounds for treating proliferative disorders and viral infections” (University College Dublin, National University of Ireland, …, priority 2012, dated 2017)

What was measured:
TPα = target: T1, TPα (Homo sapiens, UniProt P21731); assay: U46619-induced [Ca2+]i mobilization in HEK.TPα cells; assay type: cell-based; settings: for remaining activity at 1 µM / Percentage of Control, TPα, 1 μM: antagonist 1 μM; for remaining activity at 1 µM / remaining activity at 10 µM / Percentage of Control, TPα, 1 μM / Percentage of Control, TPα, 10 μM / IC50: 1 μM U46619; for remaining activity at 1 µM / remaining activity at 10 µM / Percentage of Control, TPα, 1 μM / Percentage of Control, TPα, 10 μM: % of agonist-induced response in vehicle-treated cells; for remaining activity at 1 µM: read-out: Percentage of Control, TPα, 1 μM; for remaining activity at 10 µM / Percentage of Control, TPα, 10 μM: antagonist 10 μM; for remaining activity at 10 µM: read-out: Percentage of Control, TPα, 10 μM; for IC50: HEK.TPα cells, Table 2, read-out: IC50 data for U46619-mediated [Ca2+]i mobilization, TPα; for TPα:TPβ Selectivity Ratio: IC50 TPα/IC50 TPβ
T1 construct: expressed in transfected cells
T1 sequence (P21731 1-343): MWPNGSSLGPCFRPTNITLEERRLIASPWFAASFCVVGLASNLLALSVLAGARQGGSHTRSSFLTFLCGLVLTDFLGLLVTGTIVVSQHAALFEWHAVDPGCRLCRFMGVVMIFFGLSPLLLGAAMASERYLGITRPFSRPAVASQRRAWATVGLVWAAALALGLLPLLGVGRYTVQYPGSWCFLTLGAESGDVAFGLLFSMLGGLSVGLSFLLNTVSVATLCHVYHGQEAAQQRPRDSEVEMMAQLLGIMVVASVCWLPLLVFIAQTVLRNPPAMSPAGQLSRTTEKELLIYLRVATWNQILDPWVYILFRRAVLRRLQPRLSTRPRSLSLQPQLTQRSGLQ
Excerpt: (§1) An appropriate functional test for the evaluation of the agonistic and/or antagonistic potency of the compounds of the invention is the determination of calcium flux. Both TPα and TPβ are coupled to the G-protein Gαq. Therefore, stimulation of these receptors ultimately leads to a release of intracellular calcium ([Ca^2+]i) from intracellular stores. Consequently, the determination of [Ca^2+]i flux represents an appropriate functional test for the evaluation of the agonistic/antagonistic potency of compounds of the invention. Calcium can be measured using a molecule characterized by the covalent combination of a Ca^2+ chelating group and a fluorophore group. The Ca^2+ binding properties of these indicators are formed by the presence of a tetracarboxylic acid core as found for example in EGTA (Ethylene Glycol bis(2-aminoethyl)Tetraacetic Acid). Binding of Ca^2+ produces a wavelength shift in either the excitation or emission fluorescence spectra or a change in the emission intensity. Whereas the Ca^2+ binding to EGTA is pH dependent, recent dyes are designed from an EGTA derivative, BAPTA (1,2-Bis(2-Aminophenoxy)ethane-N,N,N′,N′-Tetraacetic Acid). Loading of these dyes inside cells commonly uses esterified forms (acetoxymethyl ester), which are able to cross the cell membranes and are subsequently hydrolyzed by esterases inside the cell.
(§2) Estimation of [Ca^2+]i flux is calculated from the fluorescence signal (F). For calibration, the maximal fluorescence (Fmax, Ca^2+-saturated form of the dye) as well as minimal fluorescence (Fmin, Ca^2+-free form of the dye) must be determined. These parameters are determined usually in situ after the experiment, for example by subsequent addition to the mixture of a cell-disrupting agent that releases all Ca^2+ such as Triton X100 and a potent Ca^2+-chelating agent such as EGTA. After subtraction of background fluorescence, [Ca^2+]; flux can be calculated for non-ratiometric indicators.
(§3) Intracellular [Ca^2+]; fluxes were measured using a fluorescence plate reader following a modified protocol of Kassack et al., ‘Quantitative comparison of functional screening by measuring intracellular Ca^2+ with radioligand binding at recombinant human dopamine receptors’, AAPS Pharmsci, 2002, 4(4); 102-111, in cell lines (e.g. HEK293 or other cell type) endogenously-expressing or over-expressing either TPα, TPβ or any other receptor or protein to be screened.
(§4) By way of example, HEK 293 cells which have been grown for 3-4 days in normal growth media (minimum essential media containing 10% FBS and 2 mmol/1 L-glutamine), under normal growth conditions (37° C., in humidified 5% CO2 atmosphere) are washed and harvested in KREBs-HEPES buffer (118 mM NaCl, 4.7 mM KCl, 1.2 mM MgSO4, 1.2 mM KH2PO4, 4.2 mM NaHCO3, 11.7 mM D-glucose, 1.3 mM CaCl2, 10 mM HEPES, pH 7.4). Cells are then incubated with 3 μM Fluo-4 in KREBs-HEPES buffer containing 1% Pluoronic F-127, for 1 hr at 25° C. with agitation. Then, cells are washed in KREBs-HEPES buffer containing 0.5% BSA and re-suspended at a final concentration of 3×10^5 cells/ml. Approx. 5.4×10^4 cells per well are plated in a 96-well plate and pre-incubated with test compounds for 10 m prior to measuring the fluorescence intensity at 520 nm for 25 seconds at 1 s intervals to monitor baseline using the Fluoroskan Ascent. Agonist (e.g., 1 μM U46619) is injected into separate wells by the automatic pipettor and fluorescence intensity is monitored at 520 nm for 75 seconds at 1 s intervals. Thereafter, Triton X100 and EGTA are added sequentially where Fmax refers to maximal fluorescence intensity measured after permeabilization of the cells with 2% Triton X100 and Fmin refers to fluorescence intensity measured after addition of 1 mM EGTA.
(§5) The dye Fluo-4 has its excitation peak at 480 nm, in the visible spectra, which spare cells to be damaged by UV (340-360 nm) stimulation and reduces auto-fluorescence of cells. […]

TPβ = target: T2, TPβ (Homo sapiens, UniProt P21731); assay: U46619-induced [Ca2+]i mobilization in HEK.TPβ cells; assay type: cell-based; settings: 1 μM U46619; for remaining activity at 1 µM / activity class in HEK.TPβ cells / Percentage of Control, TPβ, 1 μM: antagonist 1 μM; for remaining activity at 1 µM / remaining activity at 10 µM / Percentage of Control, TPβ, 1 μM / Percentage of Control, TPβ, 10 μM: % of agonist-induced response in vehicle-treated cells; for remaining activity at 1 µM: read-out: Percentage of Control, TPβ, 1 μM; for remaining activity at 10 µM / Percentage of Control, TPβ, 10 μM: antagonist 10 μM; for remaining activity at 10 µM: read-out: Percentage of Control, TPβ, 10 μM; for IC50: HEK.TPβ cells, Table 2, read-out: IC50 data for U46619-mediated [Ca2+]i mobilization, TPβ
T2 construct: expressed in transfected cells
Excerpt: as §1, §2, §3, §4, §5

T2 sequence (P21731 1-407 isoform P21731-2): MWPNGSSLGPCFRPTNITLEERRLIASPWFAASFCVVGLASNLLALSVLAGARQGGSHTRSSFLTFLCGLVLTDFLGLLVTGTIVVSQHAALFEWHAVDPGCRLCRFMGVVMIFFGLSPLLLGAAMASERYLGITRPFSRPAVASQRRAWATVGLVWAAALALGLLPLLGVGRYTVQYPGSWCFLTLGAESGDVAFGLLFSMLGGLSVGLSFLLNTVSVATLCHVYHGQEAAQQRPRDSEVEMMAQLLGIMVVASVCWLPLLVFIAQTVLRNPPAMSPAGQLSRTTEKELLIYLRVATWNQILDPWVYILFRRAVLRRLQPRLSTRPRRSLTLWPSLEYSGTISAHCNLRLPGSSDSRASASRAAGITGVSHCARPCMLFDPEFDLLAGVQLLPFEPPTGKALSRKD

Row | SMILES | remaining activity at 1 µM (TPα) [%] | remaining activity at 10 µM (TPα) [%] | remaining activity at 1 µM (TPβ) [%] | remaining activity at 10 µM (TPβ) [%] | further results
1 | COc1ccc(-c2cccc(Oc3ccc(S(C)(=O)=O)cc3S(=O)(=O)NC(=O)NC(C)(C)C)c2)cc1 [NTP27, N-(tert-butylcarbamoyl)-2-((4′-methoxy-[1,1′-biphenyl]-3-yl)oxy)-5-(methylsulfonyl)benzenesulfonamide] | 81.1 ± 10.2 | 68.4 ± 4.56 | 36.4 ± 3.8 | 16.3 ± 2.39 | activity class in HEK.TPβ cells (TPβ): ACTIVE
2 | COc1ccc(-c2cccc(Oc3ccc(-c4ccncc4)cc3S(=O)(=O)NC(=O)NC(C)(C)C)c2)cc1 [NTP29] | 113 ± 8.15 | 105 ± 8.03 | 100 ± 4.69 | 94.6 ± 3.58 | 
3 | COc1ccc(-c2cccc(Oc3ccc(Cl)cc3S(=O)(=O)NC(=O)NC(C)(C)C)c2)cc1 [NTP30, N-(tert-butylcarbamoyl)-5-chloro-2-((4′-methoxy-[1,1′-biphenyl]-3-yl)oxy)benzenesulfonamide] | 52.2 ± 3.9 | 23.3 ± 3.63 | 46.5 ± 5.86 | 9.31 ± 1.57 | activity class in HEK.TPβ cells (TPβ): ACTIVE
4 | COc1ccc(-c2cccc(Oc3cc(C)c(C#N)cc3S(=O)(=O)NC(=O)NC(C)(C)C)c2)cc1 [NTP32, N-(tert-butylcarbamoyl)-5-cyano-2-((4′-methoxy-[1,1′-biphenyl]-3-yl)oxy)-4-methyl benzenesulfonamide] |  |  |  |  | Percentage of Control, TPα, 1 μM (TPα): 80.3 ± 4.21%; Percentage of Control, TPα, 10 μM (TPα): 69.3 ± 2.07%; Percentage of Control, TPβ, 1 μM (TPβ): 93.6 ± 4.06%; Percentage of Control, TPβ, 10 μM (TPβ): 46.2 ± 4.83%
5 | COc1ccc(-c2cccc(Oc3ccc(C#N)cc3S(=O)(=O)NC(=O)NC(C)(C)C)c2)cc1 [NTP33, N-(tert-butylcarbamoyl)-5-cyano-2-((4′-methoxy-[1,1′-biphenyl]-3-yl)oxy)benzene-sulfonamide] |  |  |  |  | Percentage of Control, TPα, 1 μM (TPα): 103 ± 6.25%; Percentage of Control, TPα, 10 μM (TPα): 82.4 ± 5.86%; Percentage of Control, TPβ, 1 μM (TPβ): 75.6 ± 6.46%; Percentage of Control, TPβ, 10 μM (TPβ): 34.5 ± 1.56%
6 | COc1ccc(-c2cccc(Oc3cc[n+]([O-])cc3S(=O)(=O)NC(=O)NC(C)(C)C)c2)cc1 [NTP41, 3-(N-(tert-butylcarbamoyl)sulfamoyl)-4-((4′-methoxy-[1,1′-biphenyl]-3-yl)oxy)pyridine 1-oxide] | 82.6 ± 3.41 | 52.8 ± 8.03 | 72.2 ± 5.66 | 18.8 ± 1.77 | 
7 | CCCCCNC(=O)NS(=O)(=O)c1cc([N+](=O)[O-])ccc1Oc1cccc(-c2ccc(OC)cc2)c1 [XLIII] |  |  |  |  | IC50 (TPα): 13 µM; TPα:TPβ Selectivity Ratio (TPα): 1.4; IC50 (TPβ): 9.33 µM
8 | CC(C)(C)NC(=O)NS(=O)(=O)c1cc([N+](=O)[O-])ccc1Oc1cccc(I)c1 [XXXVIII, 2-(3-Iodophenoxy)-5-nitrobenzene(t-butyl)sulfonyl urea] |  |  |  |  | IC50 (TPα): 4.01 µM; TPα:TPβ Selectivity Ratio (TPα): 2; IC50 (TPβ): 1.99 µM

Continued, in another order:

Row | remaining activity at 1 µM (TPα) [%] | remaining activity at 10 µM (TPα) [%] | remaining activity at 1 µM (TPβ) [%] | remaining activity at 10 µM (TPβ) [%] | SMILES | further results
9 | 72.4 ± 5.97 | 55.7 ± 5.84 | 42.5 ± 2.32 | 18.5 ± 3.53 | COc1ccc(-c2cccc(Oc3ccc(-c4ccoc4)cc3S(=O)(=O)NC(=O)NC(C)(C)C)c2)cc1 [NTP20] | 
10 | 78.3 ± 8.28 | 66.4 ± 4.95 | 51 ± 1.62 | 32.2 ± 2.89 | COc1ccc(-c2cccc(Oc3ccc(-c4ccco4)cc3S(=O)(=O)NC(=O)NC(C)(C)C)c2)cc1 [NTP21] | 
11 | 101 ± 7.28 | 87.6 ± 11.3 | 85.1 ± 4.38 | 50.1 ± 4.06 | COc1ccc(-c2cccc(Oc3ccc(C(=O)N4CCOCC4)cc3S(=O)(=O)NC(=O)NC(C)(C)C)c2)cc1 [NTP22] | 
12 | 64.2 ± 2.89 | 49.9 ± 7.61 | 48.4 ± 2.75 | 20.4 ± 1.94 | COc1ccc(-c2cccc(Oc3ccc(C(=O)N4CC(O)C4)cc3S(=O)(=O)NC(=O)NC(C)(C)C)c2)cc1 [NTP23, N-(tert-butylcarbamoyl)-5-(3-hydroxyazetidine-1-carbonyl)-2-((4′-methoxy-[1,1′-biphenyl]-3-yl)oxy)benzenesulfonamide] | 
13 | 96.8 ± 3.94 | 107 ± 6.48 | 87.7 ± 8.18 | 37.9 ± 2.61 | COc1ccc(-c2cccc(Oc3ccc(C(=O)Nc4ncco4)cc3S(=O)(=O)NC(=O)NC(C)(C)C)c2)cc1 [NTP24] | 
14 | 80 ± 7.15 | 65.5 ± 6.32 | 61.6 ± 1.93 | 14.8 ± 2.03 | COc1ccc(-c2cccc(Oc3ccc(C(=O)Nc4ccccc4)cc3S(=O)(=O)NC(=O)NC(C)(C)C)c2)cc1 [NTP25] | 
15 | 108 ± 7.64 | 89.5 ± 10.3 | 110 ± 1.85 | 62.3 ± 4.3 | CCNC(=O)c1ccc(Oc2cccc(-c3ccc(OC)cc3)c2)c(S(=O)(=O)NC(=O)NC(C)(C)C)c1 [NTP28] | 
16 | 77.3 ± 8.72 | 52.7 ± 2.89 | 74.8 ± 5.49 | 27.7 ± 4.21 | COc1ccc(-c2cccc(Oc3ccncc3S(=O)(=O)NC(=O)NC(C)(C)C)c2)cc1 [NTP31, N-(tert-butylcarbamoyl)-4-((4′-methoxy-[1,1′-biphenyl]-3-yl)oxy)pyridine-3-sulfonamide] | 
